Source: patent publication US20030118627A1 (DABUR RESEARCH FOUNDATION, priority 2001, published 2003)

Experiments:
PA 1 = experiment: MTT cytotoxicity assay, PA 1 ovary; format: cell-based; conditions: Homo sapiens; for IC50: 24 h, PA 1 Ovarian, read-out: ED50 values of cytotoxicity; for cytotoxicity at 1000 µM / cytotoxicity at 2500 µM / cytotoxicity at 4000 µM / cytotoxicity at 5000 µM / cytotoxicity at 10000 µM: PA 1 Ovary, read-out: Percent cytotoxicity; for cytotoxicity at 1000 µM: 1.0 mM; for cytotoxicity at 2500 µM: 2.5 mM; for cytotoxicity at 4000 µM: 4 mM; for cytotoxicity at 5000 µM: 5 mM; for cytotoxicity at 10000 µM: 10 mM
Experimental: (§1) Briefly, a […] MTT cytotoxicity assay was performed, which is based on the principle of uptake of MTT (3-(4,5-dimethylthiazol-2-yl)-2,5-diphenyl tetrazolium bromide), a tetrazolium salt, by the metabolically active cells where it is metabolized by active mitochondria into a blue colored formazan product that is read spectrophoto-metrically. MTT was dissolved in phosphate buffered saline with a pH of 7.4 to obtain an MTT concentration of 5 mg/ml; the resulting mixture was filtered through a 0.22 micron filter to sterilize and remove a small amount of insoluble residue. For each type of tumor cell, 20,000 to 50,000 cells were seeded in a 96-well culture plate and incubated with the combination in a CO2 incubator for 24 hours. […] The assay was terminated after 24 hours by adding 100 ug (20 ul) of MTT to each well, then incubating for additional one hour, and finally adding 50 ul of 10% SDS-0.01N HCl to each well to lyse the cells and dissolve formazan. After incubating for one hour, the plate was read spectrophotometrically at 540 nm and the percentage cytotoxicity calculated.

MCF7 = experiment: MTT cytotoxicity assay, MCF7 breast; format: cell-based; conditions: Homo sapiens; for cytotoxicity at 1000 µM / cytotoxicity at 2500 µM / cytotoxicity at 4000 µM / cytotoxicity at 5000 µM / cytotoxicity at 10000 µM: MCF7 breast, read-out: Percent cytotoxicity; for cytotoxicity at 1000 µM: 1.0 mM; for cytotoxicity at 2500 µM: 2.5 mM; for cytotoxicity at 4000 µM: 4 mM; for cytotoxicity at 5000 µM: 5 mM; for cytotoxicity at 10000 µM: 10 mM
Experimental: as §1

L132 = experiment: MTT cytotoxicity assay, L132 lung; format: cell-based; conditions: Homo sapiens; for cytotoxicity at 1000 µM: 1.0 mM; for cytotoxicity at 1000 µM / cytotoxicity at 2500 µM / cytotoxicity at 4000 µM / cytotoxicity at 5000 µM / cytotoxicity at 10000 µM: read-out: Percent cytotoxicity; for cytotoxicity at 2500 µM: 2.5 mM; for cytotoxicity at 4000 µM: 4 mM; for cytotoxicity at 5000 µM: 5 mM; for cytotoxicity at 10000 µM: 10 mM
Experimental: as §1

PTC = experiment: MTT cytotoxicity assay, PTC colon; format: cell-based; conditions: Homo sapiens; for cytotoxicity at 1000 µM: 1.0 mM; for cytotoxicity at 1000 µM / cytotoxicity at 2500 µM / cytotoxicity at 4000 µM / cytotoxicity at 5000 µM / cytotoxicity at 10000 µM: read-out: Percent cytotoxicity; for cytotoxicity at 2500 µM: 2.5 mM; for cytotoxicity at 4000 µM: 4 mM; for cytotoxicity at 5000 µM: 5 mM; for cytotoxicity at 10000 µM: 10 mM
Experimental: as §1

MOLT 4 = experiment: MTT cytotoxicity assay, MOLT 4 leukemia; format: cell-based; conditions: Homo sapiens; for cytotoxicity at 1000 µM / cytotoxicity at 2500 µM / cytotoxicity at 4000 µM / cytotoxicity at 5000 µM / cytotoxicity at 10000 µM: MOLT 4 Leukemia, read-out: Percent cytotoxicity; for cytotoxicity at 1000 µM: 1.0 mM; for cytotoxicity at 2500 µM: 2.5 mM; for cytotoxicity at 4000 µM: 4 mM; for cytotoxicity at 5000 µM: 5 mM; for cytotoxicity at 10000 µM: 10 mM
Experimental: as §1

Swiss albino mice = conditions: both, mouse, in vivo, po, 15 days
Experimental: Acute toxicity studies were performed using the oral route of administration.
A batch of 5 female and 5 male mice each was administered the test substance by oral route. […] Another batch of 5 female and 5 male served as control.
Observations were made three times on the day of dosing and twice daily thereafter for the remainder of 14 days or until reversible toxic signs or symptoms subsided. All gross visible toxic signs and symptoms were recorded. Body weights were recorded prior to dosing and weekly thereafter.

293 = experiment: MTT cytotoxicity assay, 293 kidney; format: cell-based; conditions: Homo sapiens, HEK293, 24 h, read-out: ED50 values of cytotoxicity
Experimental: as §1

DU145 = experiment: MTT cytotoxicity assay, DU145 prostate; format: cell-based; conditions: Homo sapiens; for cytotoxicity at 1000 µM: DU-145, 1.0 mM; for cytotoxicity at 1000 µM / cytotoxicity at 2500 µM / cytotoxicity at 4000 µM / cytotoxicity at 5000 µM / cytotoxicity at 10000 µM: read-out: Percent cytotoxicity; for cytotoxicity at 2500 µM: DU-145, 2.5 mM; for cytotoxicity at 4000 µM: DU-145, 4 mM; for cytotoxicity at 5000 µM: DU-145, 5 mM; for cytotoxicity at 10000 µM: DU-145, 10 mM
Experimental: as §1

Miapaca2 = experiment: MTT cytotoxicity assay, Miapaca2 pancreas; format: cell-based; conditions: Homo sapiens; for cytotoxicity at 1000 µM: MIA PaCa-2, 1.0 mM; for cytotoxicity at 1000 µM / cytotoxicity at 2500 µM / cytotoxicity at 4000 µM / cytotoxicity at 5000 µM / cytotoxicity at 10000 µM: read-out: Percent cytotoxicity; for cytotoxicity at 2500 µM: MIA PaCa-2, 2.5 mM; for cytotoxicity at 4000 µM: MIA PaCa-2, 4 mM; for cytotoxicity at 5000 µM: MIA PaCa-2, 5 mM; for cytotoxicity at 10000 µM: MIA PaCa-2, 10 mM
Experimental: as §1

Hep2 = experiment: MTT cytotoxicity assay, Hep2 larynx; format: cell-based; conditions: Homo sapiens, HEp-2, 24 h, read-out: ED50 values of cytotoxicity
Experimental: as §1

U87MG = experiment: MTT cytotoxicity assay, U87MG glioblastoma; format: cell-based; conditions: Homo sapiens, U-87 MG, 24 h, read-out: ED50 values of cytotoxicity
Experimental: as §1

KB = experiment: MTT cytotoxicity assay, KB oral; format: cell-based; conditions: Homo sapiens, 24 h, read-out: ED50 values of cytotoxicity
Experimental: as §1

INT 407 = experiment: MTT cytotoxicity assay, INT 407 intestine; format: cell-based; conditions: Homo sapiens, 24 h, read-out: ED50 values of cytotoxicity
Experimental: as §1

[1] = 24 h, read-out: ED50 values of cytotoxicity

## CCOC(=O)C1CCC(=O)N1C(OC(C)=O)C(C)=O (stereo not shown) [MGC-8]
PA 1
  IC50: 1800 ± 700 µM
  cytotoxicity at 1000 µM: 38 ± 3.7%
  cytotoxicity at 2500 µM: 56 ± 4.8%
  cytotoxicity at 4000 µM: 64.5 ± 5.3%
  cytotoxicity at 5000 µM: 69 ± 2.1%
  cytotoxicity at 10000 µM: 71.7 ± 6.3%
MCF7
  cytotoxicity at 1000 µM: 16 ± 4.1%
  cytotoxicity at 2500 µM: 36 ± 3.5%
  cytotoxicity at 4000 µM: 70 ± 4.5%
  cytotoxicity at 5000 µM: 73 ± 6%
  cytotoxicity at 10000 µM: 87 ± 7%
L132
  cytotoxicity at 1000 µM: 8 ± 1.5%
  cytotoxicity at 2500 µM: 12 ± 3.3%
  cytotoxicity at 4000 µM: 25 ± 3.5%
  cytotoxicity at 5000 µM: 35 ± 4.1%
  cytotoxicity at 10000 µM: 45 ± 5.1%
PTC
  cytotoxicity at 1000 µM: 32.2 ± 3.9%
  cytotoxicity at 2500 µM: 48.6 ± 2.9%
  cytotoxicity at 4000 µM: 67.7 ± 4.8%
  cytotoxicity at 5000 µM: 76.3 ± 1%
  cytotoxicity at 10000 µM: 79.6 ± 3%
MOLT 4
  cytotoxicity at 1000 µM: 40.3 ± 2.9%
  cytotoxicity at 2500 µM: 58.3 ± 4.9%
  cytotoxicity at 4000 µM: 65 ± 5.9%
  cytotoxicity at 5000 µM: 75.2 ± 2.9%
  cytotoxicity at 10000 µM: 81.9 ± 5.2%
Swiss albino mice
  safe dose: 100 mg
293
  IC50: 2900 ± 500 µM
DU145
  cytotoxicity at 1000 µM: 43 ± 3.8%
  cytotoxicity at 2500 µM: 67.4 ± 5.2%
  cytotoxicity at 4000 µM: 69.9 ± 7.9%
  cytotoxicity at 5000 µM: 73.5 ± 3%
  cytotoxicity at 10000 µM: 79.3 ± 1.9%
Miapaca2
  cytotoxicity at 1000 µM: 0%
  cytotoxicity at 2500 µM: 61 ± 2.5%
  cytotoxicity at 4000 µM: 89 ± 4.5%
  cytotoxicity at 5000 µM: 88 ± 4.5%
  cytotoxicity at 10000 µM: 86 ± 5%

## CC(=O)C(O)N1C(=O)CCC1C(=O)OCc1ccccc1 (stereo not shown) [MGC-3, N-(1-hydroxy-2-ketopropyl)-benzylpyroglutamate]
PA 1
  IC50: 1800 ± 600 µM
  cytotoxicity at 1000 µM: 42.8 ± 4.9%
  cytotoxicity at 2500 µM: 64.8 ± 5.9%
  cytotoxicity at 4000 µM: 66.9 ± 5.9%
  cytotoxicity at 5000 µM: 78.9 ± 7.4%
  cytotoxicity at 10000 µM: 88.5 ± 8.4%
Hep2
  IC50: 2600 µM
MCF7; MCF7, 24 h, MCF 7 Breast, read-out: ED50 values of cytotoxicity
  IC50: > 5000 µM
MCF7
  cytotoxicity at 1000 µM: 0%
  cytotoxicity at 2500 µM: 0%
  cytotoxicity at 4000 µM: 0%
  cytotoxicity at 5000 µM: 2.7 ± 0.1%
  cytotoxicity at 10000 µM: 12.4 ± 1%
U87MG
  IC50: > 5000 µM
L132
  cytotoxicity at 1000 µM: 0%
  cytotoxicity at 2500 µM: 30 ± 2.9%
  cytotoxicity at 4000 µM: 45.8 ± 4.5%
  cytotoxicity at 5000 µM: 52.9 ± 5.2%
  cytotoxicity at 10000 µM: 79.4 ± 5.9%
L132; [1]
  IC50: 4600 ± 1600 µM
PTC
  cytotoxicity at 1000 µM: 0%
  cytotoxicity at 2500 µM: 32.9 ± 3.8%
  cytotoxicity at 4000 µM: 54.9 ± 3.8%
  cytotoxicity at 5000 µM: 56.8 ± 5.7%
  cytotoxicity at 10000 µM: 86.9 ± 7.6%
PTC; [1]
  IC50: 3800 ± 700 µM
MOLT 4; 24 h, Molt 4 Leukemia, read-out: ED50 values of cytotoxicity
  IC50: 1650 ± 500 µM
MOLT 4
  cytotoxicity at 1000 µM: 42.1 ± 4.3%
  cytotoxicity at 2500 µM: 54.9 ± 4.3%
  cytotoxicity at 4000 µM: 65.9 ± 4.3%
  cytotoxicity at 5000 µM: 87.9 ± 7.3%
  cytotoxicity at 10000 µM: 88.3 ± 7.4%
293
  IC50: 2000 ± 300 µM
KB
  IC50: 2550 ± 400 µM
INT 407
  IC50: 2850 ± 700 µM
DU145
  cytotoxicity at 1000 µM: 29.4 ± 4.2%
  cytotoxicity at 2500 µM: 56.9 ± 4.3%
  cytotoxicity at 4000 µM: 64.8 ± 6.3%
  cytotoxicity at 5000 µM: 87.9 ± 8.3%
  cytotoxicity at 10000 µM: 88.4 ± 4%
DU145; DU-145, 24 h, read-out: ED50 values of cytotoxicity
  IC50: 1800 ± 200 µM
Miapaca2
  cytotoxicity at 1000 µM: 0%
  cytotoxicity at 2500 µM: 0%
  cytotoxicity at 4000 µM: 0%
  cytotoxicity at 5000 µM: 12.9 ± 1%
  cytotoxicity at 10000 µM: 14.1 ± 1.9%
Miapaca2; MIA PaCa-2, 24 h, read-out: ED50 values of cytotoxicity
  IC50: > 5000 µM
